{"source": "patent US6624188B1", "about": "“Method of treatment with compounds having retinoid-like activity and reduced skin toxicity and lacking teratogenic effects” (Allergan, Inc., priority 1992, dated 2003)", "key": {"female hairless mice": {"tested_on": "female hairless mice", "assay_type": "in vivo", "details": "for Death/Total: animals died from a group of 5; for % Weight Change: end of 14 day test or at death; for Flaking/scaling grade: scale 0 to +5", "experimental": "Specifically, tests to determine skin toxicity were performed on certain examplary compounds in accordance with the present invention, and on certain analogous compounds which lack the R3 substituent in accordance with Formula 1, 2 or 3. A “Two Week Acute Skin Toxicity Study of Multiple Topical Applications in Female Hairless Mice” is conducted as follows: a daily dose (expressed in nanomoles) of the “test compound” is applied to the skin on the back of hairless mice (usually a test group of 5 mice for a given compound). The daily dose of the test compound is applied for 5 consecutive days, followed by two days when the test compound is not administered, and is thereafter administered again for 4 more consecutive days. On the 14th day the test animals if still alive, are sacrificed to perform certain studies and tests. In the meanwhile certain tests and observations are made on a daily basis with respect to body weight and skin condition. Skin condition is graded as “flaking/scaling” and “abrasion” on a scale of 0 to +5 where the various numbers correspond to the following observations.\nResults of these tests are summarized in Table 3, where daily dose is expressed in nanomoles, weight loss of the test animals is in percentages at the end of the 14 day test period, or at the time the test animal expired, and mortality is expressed with the number of animals which died from a group of 5."}, "gestating ICR mice": {"tested_on": "gestating ICR mice", "experiment": "in vivo teratology study, single oral dose on day 11 of gestation", "set-up": "species or system mouse", "details": "for # Litters Normal / Teratogenic Effects % Cleft Palate / Teratogenic Effects % Limb Defects / Teratogenic Effects % Resorbed: day 11 of gestation, ICR mice", "experimental": "The methodology of the study is described as follows:\nICR mice (Ace Animals, Boyertown, Pa.) were used. Mature male and virgin female ICR mice were housed in environmentally controlled rooms and acclimatized to a 12 hour light/dark cycle (light cycle 6 A.M. to 6 P.M.) for 2 weeks prior to use. All animals were maintained on Purina Lab Chow and tap water ad libitum. A group of 3-4 females was caged with a single male of proven fertility for 4 hours. Presence of a vaginal plug immediately afterward was regarded as evidence of successful mating, and this day was designated as day 0 of gestation.\n[…] All animals were killed by cervical dislocation under mild ether anesthesia on day 17 of gestation. Upon laparotomy, the fetuses were examined for external malformations and weighed; one-half of each litter was then fixed in 95% ethanol and processed for staining of the skeleton by the rapid, alizarin red-S dye method. These preparations were examined under a dissection microscope to screen for abnormalities in the axial and the appendicular skeleton. The other half of each litter was fixed in Bouin's solution and examined by freehand razor serial sectioning to screen for anomalies of the brain, face, and palate.\nDifferences in dose-related incidence of malformations and resorptions were assessed by computing percentages of affected conceptuses among total implantation sites. The groups were compared statistically by a method based on Student's t-tests of arcs in square root transformed percentages. Values at 0.05 probability level were considered significant. The median effective dose was calculated by logarithmic curve fitting of the dose-response data."}, "[1]": {"tested_on": "tissue transglutaminase (tTGASE) in HL-60 cells", "experiment": "Tissue Transglutaminase Assay (tTGASE) in HL-60 Cells", "assay_type": "cell-based", "details": "FIGS. 6-9", "experimental": "Other assays in which the retinoid like activity of the compounds used in accordance with the invention are confirmed are the HL-60 transglutaminase induction and HL-60 differentiation assay, the procedures of which are described as follows.\nHL-60 cells were grown as a suspension culture in T-162 cm^2 flasks in serum-free RPMI 1640 medium supplemented with insulin (5 μg/ml), transferrin (5 μg/ml), and selenium (3 nM). The cells (1×10^6 cells/well, in 6-well dishes) were treated with serial dilutions of test compounds in the above RPMI 1640 medium which was additionally supplemented with […] dibutyryl cyclic adenosine monophosphate, a component found to be necessary for efficient differentiation of the cells. Ethanol was used in the vehicle control cultures. After 1 days of incubation at 37° C. in a 7.5% CO2 incubator, the cells were collected in a set of tubes and pelleted by centrifugation. The cells were lyzed in a buffer containing 20 mM Tris-HCl, pH 7.5, 1 mM EDTA, and 0.5% Triton X-100. An aliquot of the cell lysate was assayed for tTGASE activity in a reaction mixture containing 20 mM Tris-HCl, pH 7.5, 5 mM CaCl2, 2 mg/ml dimethylcasein, 15 mM B-mercaptoethanol and 50 μCi/ml [2,3-^3H] putrescine dihydrochloride. The reaction was carried out for 60 minutes in a 37° C. shaking water bath. The reaction was stopped by an addition of 10% trichloroacetic acid containing 0.1% putrescein. An aliquot of the stopped reaction mixture was spotted on Whatman 3 MM filter discs. The filter discs, along with the control blank filter discs, were washed twice with 5% trichloroacetic acid containing 0.1% putrescein and twice with methanol. After drying under a heat lamp, the radioactivity in the filter discs was determined by scintillation counting. An aliquot of the cell lysates was also assayed for […] by the Bradford method (Bio-Rad). After subtracting the radioactivity from the control blank filter discs, the data were calculated and expressed as pmol/min/mg protein.\nAs is well understood in the art, induction of tranglutaminase activity in the just-described assay is an early marker of retinoid like activity."}, "human sebocyte cultures": {"tested_on": "human sebocyte cultures", "experiment": "human sebocyte culture 3H-thymidine incorporation (DNA synthesis, anti-proliferative effect)", "assay_type": "cell-based", "details": "human sebocytes, 8 days treatment, FIG. 2", "description": "The retinoid like activity of the compounds used in accordance with the method of treatment of the present invention and of the novel compounds of the invention can be confirmed by several assay procedures. An assay involving human sebocyte cultures measures the inhibition of ^3H-thymidine into cells, and thus measures inhibition of DNA synthesis and thus an anti-proliferative effect on sebocyte (i.e. a sebostatic effect). This assay is also considered a specific assay for effectiveness of a compound as a potential anti-acne drug. The test is conducted as follows.\nFace-lift or forehead reduction skins from cosmetic surgeries were used as sources of human sebaceous gland cells (sebocytes).\nIsolated sebocytes were plated in type 1 collagen coated-dishes in DMEM/F12 (1:1) medium supplemented with 8% fetal bovine serum, 2% human serum, 10 ng/ml epidermal growth factor, 1 nM cholera toxin, 1 μM hydrocortisone, and penicillin/streptomycin/amphotericin B. Secondary cultures were prepared by plating Dispase dissociated cells in collagen coated 24-well plates.\nSub-confluent secondary cultures were treated with the test compounds or ethanol vehicle every 2-3 days for 8 days in the above medium from which the total serum concentration was reduced to 2% and hydrocortisone was not included. During the last 6 hours of treatment, the cultures were labeled with 2 μCi/ml ^3H-thymidine. DNA from the cells were extracted by thichoroacetic acid and perchloric acid, and assayed for radioactivity by scintillation counting and for content of DNA by the diphenylamine calorimetric method. The results were expressed as CPM/μg DNA, or as per cent of vehicle control which incorporated about 1,000-1,500 cpm/μg DNA."}, "[2]": {"details": "daily dose 75 nanomoles topical"}, "[3]": {"details": "daily dose 124 nanomoles topical"}, "[4]": {"details": "daily dose 1240 nanomoles topical"}}, "note": "Where two headings read alike, the source gives them in different places.", "data": [{"smiles": "CCOC(=O)c1ccc(/C=C(\\C)c2cc3c(cc2C)C(C)(C)CCC3(C)C)cc1", "note": "[AGN191422, Ethyl 4-[(E)-2-(5,6,7,8-Tetrahydro-3,5,5,8,8-pentamethylnaphthalen-2-yl)propen-1-yl]benzoate]", "values": [{"measurement": "Death/Total", "setting": "female hairless mice; daily dose 60 nanomoles topical", "result": "0/5"}, {"measurement": "Death/Total", "setting": "female hairless mice; daily dose 64 nanomoles topical", "result": "0/5"}]}, {"smiles": "CCOC(=O)c1ccc(/C=C(\\C)c2cc(C(C)(C)C)ccc2C)cc1", "note": "[AGN191544, Ethyl 4-[(E)-2-(2-Methyl-5-tert-butylphenyl)propen-1-yl]benzoate]", "values": [{"measurement": "Death/Total", "setting": "female hairless mice; daily dose 800 nanomoles topical", "result": "0/5"}]}, {"smiles": "CCOC(=O)c1ccc(/C=C(\\C)c2cc3c(cc2C)OC(C)(C)CC3(C)C)cc1", "note": "[AGN191549, Ethyl 4-[(E)-2-(2,2,4,4,7-Pentamethyl-chroman-6-yl)propen-1-yl]-benzoate]", "values": [{"measurement": "Death/Total", "setting": "female hairless mice; daily dose 300 nanomoles topical", "result": "0/5"}]}, {"smiles": "C/C(=C\\c1ccc(C(=O)O)cc1)c1cc2c(cc1C)C(C)(C)CCC2(C)C", "note": "[AGN 191440]", "values": [{"measurement": "Death/Total", "setting": "female hairless mice; [2]", "result": "0/5"}, {"measurement": "% Weight Change", "setting": "female hairless mice; [2]", "result": 3.1, "unit": "%"}, {"measurement": "Flaking/scaling grade", "setting": "female hairless mice; [2]", "result": "+2 (Slight (˜25% or less))"}, {"measurement": "Death/Total", "setting": "female hairless mice; [3]", "result": "0/5"}, {"measurement": "% Weight Change", "setting": "female hairless mice; [3]", "result": "−2.7", "unit": "%"}, {"measurement": "Flaking/scaling grade", "setting": "female hairless mice; [3]", "result": "+2 (Slight (˜25% or less))"}, {"measurement": "Death/Total", "setting": "female hairless mice; [4]", "result": "3/5"}, {"measurement": "% Weight Change", "setting": "female hairless mice; [4]", "result": "−19.5", "unit": "%"}, {"measurement": "Flaking/scaling grade", "setting": "female hairless mice; [4]", "result": "+4 (Moderate (greater than ˜50%, less than ˜75%))"}, {"measurement": "times less teratogenic than AGN 191183", "setting": "gestating ICR mice; comparison of doses producing teratogenic effects in ICR mice", "result": "approximately 100 times"}, {"measurement": "# Litters Normal", "setting": "gestating ICR mice; single oral dose 1 mg/kg", "result": 5}, {"measurement": "Teratogenic Effects % Cleft Palate", "setting": "gestating ICR mice; single oral dose 1 mg/kg", "result": 13, "unit": "%"}, {"measurement": "Teratogenic Effects % Limb Defects", "setting": "gestating ICR mice; single oral dose 1 mg/kg", "result": 17, "unit": "%"}, {"measurement": "Teratogenic Effects % Resorbed", "setting": "gestating ICR mice; single oral dose 1 mg/kg", "result": 19, "unit": "%"}, {"measurement": "# Litters Normal", "setting": "gestating ICR mice; single oral dose 10 mg/kg", "result": 1}, {"measurement": "Teratogenic Effects % Cleft Palate", "setting": "gestating ICR mice; single oral dose 10 mg/kg", "result": 88, "unit": "%"}, {"measurement": "Teratogenic Effects % Limb Defects", "setting": "gestating ICR mice; single oral dose 10 mg/kg", "result": 75, "unit": "%"}, {"measurement": "Teratogenic Effects % Resorbed", "setting": "gestating ICR mice; single oral dose 10 mg/kg", "result": 2, "unit": "%"}, {"measurement": "# Litters Normal", "setting": "gestating ICR mice; single oral dose 100 mg/kg", "result": 0}, {"measurement": "Teratogenic Effects % Resorbed", "setting": "gestating ICR mice; single oral dose 100 mg/kg", "result": 100, "unit": "%"}, {"measurement": "induction of transglutaminase activity", "setting": "[1]", "result": "active"}]}, {"smiles": "C/C(=C\\c1ccc(C(=O)O)cc1)c1cc2c(cc1Cl)C(C)(C)CCC2(C)C", "note": "[AGN 191642, 4[(E)-2-(3-Chloro-5,6,7,8-tetrahydro-5,5,8,8-tetramethylnaphthalen-2-yl)propen-1-yl]benzoic Acid]", "values": [{"measurement": "induction of transglutaminase activity", "setting": "[1]", "result": "active"}]}, {"smiles": "C/C(=C\\c1ccc(C(=O)O)s1)c1cc2c(cc1C)C(C)(C)CCC2(C)C", "note": "[AGN 191659, 5-[(E)-2-(5,6,7,8-Tetrahydro-3,5,5,8-pentamethylnaphthalen-2-yl)propen-1-yl]-2-thiophenecarboxylic Acid]", "values": [{"measurement": "inhibition of 3H-thymidine incorporation (effectiveness in sebocyte assay)", "setting": "human sebocyte cultures", "result": "effective"}, {"measurement": "induction of transglutaminase activity", "setting": "[1]", "result": "active"}]}]}
